Test system: HIV-1 LAI
Assay: microbe, parasite or virus in culture
Settings: for EC50: Human immunodeficiency virus 1, MT2, 120 h; for Combination Indices at % HIV Inhibition (Confidence Interval) 50%: 50% HIV inhibition; for Combination Indices at % HIV Inhibition (Confidence Interval) 50% / Combination Indices at % HIV Inhibition (Confidence Interval) 75% / Combination Indices at % HIV Inhibition (Confidence Interval) 90%: 95% CI in parenthesis; for Combination Indices at % HIV Inhibition (Confidence Interval) 75%: 75% HIV inhibition; for Combination Indices at % HIV Inhibition (Confidence Interval) 90%: 90% HIV inhibition; for Overall Result: two-drug combination with Compound 1, all ratios and effect levels, MT-2/HIV-1 LAI, RT assay
Description: Virus and cell lines. The T-cell lines, MT-2 and PM-1 were obtained through the AIDS Research and Reference Reagent Program, NIAID, and were contributed by Dr. D. Richman and Dr. R. Gallo, respectively. Both cell lines were cultured in RPMI 1640 medium supplemented with 10% fetal bovine serum, 2 mM L-glutamine and sub-cultured twice a week. The LAI strain of HIV-1 was obtained from the Fred Hutchinson Cancer Research Center, and the Bal strain was from NIH. Both virus stocks were amplified and titered in MT-2 cells (LAI) and PM-1 cells (Bal) using a virus infectivity assay.
Drug Susceptibility and Cytotoxicity Assays. For drug susceptibility assays, MT-2 cells were infected with HIV-1 LAI (or PM-1 cells with HIV-1 Bal) at an MOI of 0.005, and seeded into 96-well microtiter plates (0.1×10^6 cells/ml) containing serial dilutions of test compounds. […] Each drug ratio consisted of an array of 3-fold serial dilutions, and was performed in quadruplicate. The plates were incubated at 37° C./5% CO2. The MT-2 cells infected with HIV-1 LAI were incubated for 5 days. On day-five post-infection, 20 μl from each well was harvested and quantitated by a reverse transcriptase (RT) assay, or in samples involving non-nucleoside RT inhibitors, an MTS assay. The PM-1 cells infected with HIV-1 Bal and used for studying the combinations with CCR5 inhibitors were incubated for six days. On day-six post-infection, 20 μl from each well was harvested, 20- and 50-fold diluted and quantitated by p24 assay. Cytotoxicity assays were performed using uninfected cells, exposed to the same drug combinations, and incubated for six days. Cell viability was determined by an XTT assay. The CC50 values were calculated by using the exponential form of the median effect equation as mentioned below for calculation of EC50.
Analysis of Drug Combination Effects. For determination of CI values, drugs were diluted in a fixed ratio and multiple ratios were analyzed. The drug serial dilutions spanned a range of concentrations near the EC50 value of each compound, so that equivalent antiviral activities could be compared. Concentration-response curves were estimated for each individual drug and every combination using the median-effect equation. The equation was fit using a nonlinear regression routine (Proc Nlin) in PC SAS version 8.01 (SAS Institute Inc., SAS Version 8.01, Cary, N.C.: SAS Institute Inc., 1990).
In this equation, Fa stands for “fraction affected,” and represents the fraction of the viral load that has been inactivated. […] ED50 is drug concentration that is expected to reduce the amount of virus by 50%, and m is a parameter that reflects the slope of the concentration-response curve.
To assess antiviral effects of different drug combination treatments, combination indices (CIs) were calculated according to Chou and Rideout. The combination index was computed as CI=[D]1/[Dm]1+[D]2/[Dm]2
In this equation [Dm]1 and [Dm]2 are the concentrations of drugs that would individually produce a specific level of effect, while [D]1 and [D]2 are the concentrations of drugs in combination that would produce the same level of effect.
Theoretically, additivity is implied if the CI is equal to one, synergy if the CI is less than one, and antagonism if the CI is greater than one. […] At best, we can construct a range that contains the likely values for the CI, given the noise in the data. In this report, these ranges are reported in parentheses next to each point estimate of the CI. […] If the range fell entirely above 1.0, we would infer antagonistic behavior. If the range were to include 1.0, we would infer additivity.
In carrying out the combination experiments below, the EC50 for Compound 1 and each comparator compound was determined during the course of each study, and used in the subsequent data analysis.

[1] = combination with Compound 1, EC50 ratio 1:1 (Compound 1:comparator)
[2] = combination with Compound 1, EC50 ratio 1:1
[3] = combination with Compound 1, EC50 ratio 1:2.5
[4] = combination with Compound 1, EC50 ratio 2.5:1

| EC50 | SMILES | Combination Indices at % HIV Inhibition (Confidence Interval) 50% [1] | Combination Indices at % HIV Inhibition (Confidence Interval) 75% [2] | Combination Indices at % HIV Inhibition (Confidence Interval) 90% [2] | Combination Indices at % HIV Inhibition (Confidence Interval) 50% [3] | Combination Indices at % HIV Inhibition (Confidence Interval) 75% [3] | Combination Indices at % HIV Inhibition (Confidence Interval) 90% [3] | Combination Indices at % HIV Inhibition (Confidence Interval) 50% [4] | Combination Indices at % HIV Inhibition (Confidence Interval) 75% [4] | Combination Indices at % HIV Inhibition (Confidence Interval) 90% [4] | Overall Result | Overall Result (listed as amprenavir) | Overall Result (listed as atazanavir) | Overall Result (listed as emtricitabine) |
| --- | --- | --- | --- | --- | --- | --- | --- | --- | --- | --- | --- | --- | --- | --- |
| 8 nM | c1cc(CN2CCCNCCNCCCNCC2)ccc1CN1CCCNCCNCCCNCC1 [AMD-3100] | 0.40 (0.34, 0.46) | 0.27 (0.21, 0.33) | 0.18 (0.12, 0.24) | 0.25 (0.21, 0.29) | 0.14 (0.11, 0.17) | 0.08 (0.05, 0.10) | 0.15 (0.11, 0.20) | 0.28 (0.18, 0.38) | 0.51 (0.20, 0.83) |  |  |  |  |
| 21 nM | CC(C)CN(C[C@@H](O)[C@H](Cc1ccccc1)NC(=O)O[C@H]1CCOC1)S(=O)(=O)c1ccc(N)cc1 [Amprenavir, amprenavir] | 0.89 (0.73, 1.06) | 0.93 (0.68, 1.17) | 0.96 (0.57, 1.36) | 1.30 (0.84, 1.76) | 1.08 (0.55, 1.62) | 0.90 (0.20, 1.60) | 0.41 (0.34, 0.48) | 0.32 (0.25, 0.40) | 0.25 (0.16, 0.35) | Additive- | additive to synergistic |  |  |
|  | CC[C@H](C)[C@H](NC(=O)[C@H](CCC(N)=O)NC(=O)[C@H](C)NC(=O)[C@H](CCC(N)=O)NC(=O)[C@H](CCC(=O)O)NC(=O)[C@H](CC(C)C)NC(=O)[C@H](CC(C)C)NC(=O)[C@H](C)NC(=O)[C@@H](NC(=O)[C@@H](NC(=O)[C@H](CCCCN)NC(=O)[C@H](CCC(N)=O)NC(=O)[C@H](CCC(=O)O)NC(=O)[C@H](Cc1c[nH]c2ccccc12)NC(=O)[C@H](CCC(=O)O)NC(=O)[C@H](CCC(N)=O)NC(=O)[C@H](Cc1c[nH]c2ccccc12)NC(C)=O)[C@@H](C)CC)[C@@H](C)O)C(=O)N[C@@H](CCC(N)=O)C(=O)N[C@@H](CCC(N)=O)C(=O)N[C@@H](CCC(=O)O)C(=O)N[C@@H](CCCCN)C(=O)N[C@@H](CC(N)=O)C(=O)N[C@@H](CCC(=O)O)C(=O)N[C@@H](Cc1ccc(O)cc1)C(=O)N[C@@H](CCC(=O)O)C(=O)N[C@@H](CC(C)C)C(=O)N[C@@H](CCC(N)=O)C(=O)N[C@@H](CCCCN)C(=O)N[C@@H](CC(C)C)C(=O)N[C@@H](CC(=O)O)C(=O)N[C@@H](CCCCN)C(=O)N[C@@H](Cc1c[nH]c2ccccc12)C(=O)N[C@@H](C)C(=O)N[C@@H](CO)C(=O)N[C@@H](CC(C)C)C(=O)N[C@@H](Cc1c[nH]c2ccccc12)C(=O)N[C@@H](CCC(=O)O)C(=O)N[C@@H](Cc1c[nH]c2ccccc12)C(=O)N[C@@H](Cc1ccccc1)C(N)=O [Compound T-1249] | 0.25 (0.20, 0.30) | 0.14 (0.10, 0.19) | 0.08 (0.04, 0.12) | 0.32 (0.28 0.35) | 0.17 (0.14, 0.19) | 0.09 (0.06, 0.11) | 0.19 (0.17, 0.22) | 0.14 (0.12, 0.16) | 0.10 (0.08, 0.13) |  |  |  |  |
| 1800 nM | O=c1[nH]cnc2c1ncn2[C@H]1CC[C@@H](CO)O1 [Didanosine, didanosine] | 1.29 (1.18, 1.40) | 0.69 (0.60, 0.78) | 0.37 (0.29, 0.44) | 0.53 (0.46, 0.60) | 0.32 (0.26, 0.38) | 0.19 (0.13, 0.25) | 0.95 (0.74, 1.17) | 0.69 (0.48, 0.90) | 0.50 (0.26, 0.74) |  |  |  |  |
| 34 nM | Nc1nc(=O)n([C@@H]2CS[C@H](CO)O2)cc1F [Emtricitabine, emtricitabine] | 0.57 (0.49, 0.64) | 0.33 (0.27, 0.39) | 0.19 (0.14, 0.24) | 0.38 (0.31, 0.45) | 0.48 (0.36, 0.60) | 0.60 (0.36, 0.84) | 0.17 (0.15, 0.19) | 0.21 (0.17, 0.25) | 0.26 (0.18, 0.34) | Synergistic |  |  | consistent synergy at all effective levels and concentration ratios |

| SMILES | EC50 | Combination Indices at % HIV Inhibition (Confidence Interval) 50% [1] | Combination Indices at % HIV Inhibition (Confidence Interval) 75% [2] | Combination Indices at % HIV Inhibition (Confidence Interval) 90% [2] | Combination Indices at % HIV Inhibition (Confidence Interval) 50% [3] | Combination Indices at % HIV Inhibition (Confidence Interval) 75% [3] | Combination Indices at % HIV Inhibition (Confidence Interval) 90% [3] | Combination Indices at % HIV Inhibition (Confidence Interval) 50% [4] | Combination Indices at % HIV Inhibition (Confidence Interval) 75% [4] | Combination Indices at % HIV Inhibition (Confidence Interval) 90% [4] | Overall Result | Overall Result (listed as amprenavir) | Overall Result (listed as atazanavir) | Overall Result (listed as emtricitabine) |
| --- | --- | --- | --- | --- | --- | --- | --- | --- | --- | --- | --- | --- | --- | --- |
| Nc1nc(NC2CC2)c2ncn([C@H]3C=C[C@@H](CO)C3)c2n1 [Abacavir, abacavir] | 400 nM | 0.29 (0.16, 0.42) | 0.51 (0.20, 0.82) | 0.91 (0.03, 1.78) | 0.53 (0.36, 0.70) | 0.61 (0.33, 0.88) | 0.71 (0.21, 1.22) | 0.36 (0.27, 0.45) | 0.52 (0.34, 0.71) | 0.76 (0.34, 1.19) |  |  |  |  |
| COC(=O)N[C@H](C(=O)N[C@@H](Cc1ccccc1)[C@@H](O)CN(Cc1ccc(-c2ccccn2)cc1)NC(=O)[C@@H](NC(=O)OC)C(C)(C)C)C(C)(C)C [Atazanavir, atazanavir] | 1 nM | 1.04 (0.60, 1.49) | 0.58 (0.24, 0.93) | 0.33 (0.02, 0.64) | 0.23 (0.09, 0.38) | 0.35 (0.07, 0.63) | 0.52 (0.00, 1.24) | 0.88 (0.49, 1.27) | 0.67 (0.26, 1.09) | 0.52 (0.01, 1.04) | Additive- |  | additive to synergistic |  |
| COc1ncc(OC)c2c(C(=O)C(=O)N3CCN(C(=O)c4ccccc4)CC3)c[nH]c12 [Compound 1, 1-benzoyl-4-[2-(4,7-dimethoxy-1H-pyrrolo[2,3-c]pyridin-3-yl)-1,2-dioxoethyl]-piperazine] | 1 to 4 nM |  |  |  |  |  |  |  |  |  |  |  |  |  |

From patent US20050215543A1, “Methods of treating HIV infection” (priority 2004, published 2005)
